According to ChEMBL document CHEMBL4251578, “Design, synthesis and biological evaluation of novel 2-aminobenzamides containing dithiocarbamate moiety as histone deacetylase inhibitors and potent antitumor agents” (Eur J Med Chem, 2018):

Assays:
MGC-803 [1] = assay: Antiproliferative activity against human MGC803 cells at 8 uM after 72 hrs by CCK-8 assay relative to control; assay type: functional; conditions: MGC-803, 72 h
MGC-803 [2] = assay: Antiproliferative activity against human MGC803 cells at 2 uM after 72 hrs by CCK-8 assay relative to control; assay type: functional; conditions: MGC-803, 72 h
HeLa [3] = assay: Antiproliferative activity against human HeLa cells at 8 uM after 72 hrs by CCK-8 assay relative to control; assay type: functional
HeLa [4] = assay: Antiproliferative activity against human HeLa cells at 2 uM after 72 hrs by CCK-8 assay relative to control; assay type: functional
A-375 [5] = assay: Antiproliferative activity against human A375 cells at 8 uM after 72 hrs by CCK-8 assay relative to control; assay type: functional; conditions: A-375, 72 h
A-375 [6] = assay: Antiproliferative activity against human A375 cells at 2 uM after 72 hrs by CCK-8 assay relative to control; assay type: functional; conditions: A-375, 72 h
NCI-H1299 = assay: Antiproliferative activity against human NCI-H1299 cells after 72 hrs by CCK-8 assay; assay type: functional, cell-based; conditions: NCI-H1299, 72 h
A-375 [7] = assay: Antiproliferative activity against human A375 cells after 72 hrs by CCK-8 assay; assay type: functional, cell-based; conditions: A-375, 72 h
HeLa [8] = assay: Antiproliferative activity against human HeLa cells after 72 hrs by CCK-8 assay; assay type: functional, cell-based
HCT-116 = assay: Antiproliferative activity against human HCT116 cells after 72 hrs by CCK-8 assay; assay type: functional, cell-based; conditions: HCT-116, 72 h
MGC-803 [9] = assay: Antiproliferative activity against human MGC803 cells after 72 hrs by CCK-8 assay; assay type: functional, cell-based; conditions: MGC-803, 72 h
SMMC-7721 [10] = assay: Antiproliferative activity against human SMMC7721 cells after 72 hrs by CCK-8 assay; assay type: functional, cell-based; conditions: SMMC-7721, 72 h
SMMC-7721 [11] = assay: Cell cycle arrest in human SMMC7721 cells assessed as accumulation of cells at G0/G1 phase at 0.125 umol/L after 72 hrs by propidium iodide staining-based flow cytometric analysis (reference value: 80.65%); assay type: functional

SMILES	inhibition at 8 µM (MGC-803 [1])	inhibition at 2 µM (MGC-803 [2])	inhibition at 8 µM (HeLa [3])	inhibition at 2 µM (HeLa [4])	inhibition at 8 µM (A-375 [5])	inhibition at 2 µM (A-375 [6])	IC50 (NCI-H1299)	IC50 (A-375 [7])	IC50 (HeLa [8])	IC50 (HCT-116)	IC50 (MGC-803 [9])	IC50 (SMMC-7721 [10])	Activity (SMMC-7721 [11])
CN1CCN(C(=S)SCc2ccc(C(=O)Nc3ccccc3N)cc2)CC1	84.4%	29.6%	75.7%	52.6%	91.6%	36.6%	–	–	–	–	–	–	–
Nc1ccccc1NC(=O)c1ccc(CSC(=S)N2CCN(CCc3ccccc3)CC2)cc1	53.8%	24.8%	37%	21.9%	76.6%	26.1%	–	–	–	–	–	–	–
Cc1ccc(N2CCN(C(=S)SCc3ccc(C(=O)Nc4ccccc4N)cc3)CC2)cc1	19.8%	33.4%	24%	25.3%	26.4%	25.8%	–	–	–	–	–	–	–
Nc1ccccc1NC(=O)c1ccc(CSC(=S)N2CCN(Cc3ccncc3)CC2)cc1	79.3%	18.4%	72.9%	59.5%	89.5%	33.1%	–	–	–	–	–	–	–
CC(=O)Nc1ccc(C(=O)Nc2ccccc2N)cc1 [TACEDINALINE]	22.4%	9.5%	24.3%	7.3%	33.5%	13.4%	33800 nM	11300 nM	18000 nM	–	–	–	–
Nc1ccccc1NC(=O)c1ccc(CSC(=S)N2CCN(c3ccccc3)CC2)cc1	87.4%	42.3%	73.1%	62.2%	88.6%	27.5%	610 nM	3670 nM	840 nM	2330 nM	2140 nM	2860 nM	–
CN(C(=S)SCc1ccc(C(=O)Nc2ccccc2N)cc1)c1cccnc1	82.5%	46.1%	70.5%	16%	87.7%	26.5%	–	–	–	–	–	–	–
Nc1ccccc1NC(=O)c1ccc(CSC(=S)N2CCCc3ccccc32)cc1	87.5%	38.5%	35.7%	26.1%	81.5%	26.5%	–	–	–	–	–	–	–
Nc1ccccc1NC(=O)c1ccc(CSC(=S)N2CCN(Cc3ccccc3)CC2)cc1	19.7%	18.1%	31.3%	20.6%	29.3%	10.6%	–	–	–	–	–	–	–
Nc1ccccc1NC(=O)c1ccc(CSC(=S)N2CCN(Cc3cccnc3)CC2)cc1	64.6%	37.7%	78%	69.7%	89.2%	31.5%	–	–	–	–	–	–	–
Nc1ccccc1NC(=O)c1ccc(CSC(=S)N2CCN(c3cccnc3)CC2)cc1	76.9%	27.6%	72.5%	66.2%	88.8%	40.5%	–	–	–	–	–	–	–
Nc1ccccc1NC(=O)c1ccc(CSC(=S)N2CCN(C3CCCCC3)CC2)cc1	75.3%	16.9%	76.1%	30.6%	89.9%	31.7%	–	–	–	–	–	–	–
Nc1ccccc1NC(=O)c1ccc(CSC(=S)N2CCN(c3ccc(Cl)cc3)CC2)cc1	17.2%	15%	44.8%	51.2%	29%	32.2%	–	–	–	–	–	–	–
Nc1ccccc1NC(=O)c1ccc(CSC(=S)N2CCN(Cc3ccccn3)CC2)cc1	65.2%	23.4%	61.4%	14.2%	82.4%	20.7%	–	–	–	–	–	–	–
COc1ccc(N2CCN(C(=S)SCc3ccc(C(=O)Nc4ccccc4N)cc3)CC2)cc1	22.9%	25.3%	52.3%	39.4%	35.9%	28.1%	–	–	–	–	–	–	–
N#Cc1ccc(N2CCN(C(=S)SCc3ccc(C(=O)Nc4ccccc4N)cc3)CC2)cc1	37.6%	34.5%	70.6%	71.6%	62.9%	41.4%	–	–	–	–	–	–	–

SMILES	inhibition at 8 µM (MGC-803 [1])	inhibition at 2 µM (MGC-803 [2])	inhibition at 8 µM (HeLa [3])	inhibition at 2 µM (HeLa [4])	inhibition at 8 µM (A-375 [5])	inhibition at 2 µM (A-375 [6])	IC50 (NCI-H1299)	IC50 (A-375 [7])	IC50 (HeLa [8])	IC50 (HCT-116)	IC50 (MGC-803 [9])	IC50 (SMMC-7721 [10])	Activity (SMMC-7721 [11])
Nc1ccccc1NC(=O)c1ccc(CSC(=S)N2CCc3ccc([N+](=O)[O-])cc32)cc1	39.6%	30.6%	62.1%	45.7%	42%	22.1%	–	–	–	–	–	–	–
Nc1ccccc1NC(=O)c1ccc(CSC(=S)N2CCc3cc([N+](=O)[O-])ccc32)cc1	33.2%	26.8%	43.6%	32.6%	29.5%	16.9%	–	–	–	–	–	–	–
Nc1ccccc1NC(=O)c1ccc(CSC(=S)N2CCc3cc(Cl)ccc32)cc1	82.2%	57.7%	65.1%	40.1%	82.3%	31.9%	3280 nM	5280 nM	–	3210 nM	1890 nM	1880 nM	–
CC1CCN(C(=S)SCc2ccc(C(=O)Nc3ccccc3N)cc2)CC1	81.9%	28.1%	72.5%	46.8%	87.4%	32.7%	–	–	–	–	–	–	–
COC(=O)c1ccc2c(c1)CCN2C(=S)SCc1ccc(C(=O)Nc2ccccc2N)cc1	73.1%	37.8%	60.1%	45.3%	79.2%	37.5%	2020 nM	5880 nM	3580 nM	13200 nM	3280 nM	> 32000 nM	–
Nc1ccccc1NC(=O)c1ccc(CSC(=S)N2CCN(c3ncccn3)CC2)cc1	64.8%	28.4%	73.9%	52.2%	67.9%	24%	–	–	–	–	–	–	–
Nc1ccccc1NC(=O)c1ccc(CSC(=S)N2CCc3ccccc32)cc1	87%	44%	67%	38%	85.4%	25.7%	2900 nM	4050 nM	3450 nM	2700 nM	2300 nM	3040 nM	–
Nc1ccccc1NC(=O)c1ccc(CSC(=S)N2CCCC2)cc1	83.4%	27%	77.8%	51.3%	89.5%	30.2%	–	–	–	–	–	–	–
Nc1ccccc1NC(=O)c1ccc(CSC(=S)N2CCN(c3cnccn3)CC2)cc1	80.5%	27.1%	76.9%	70.4%	85.8%	29.1%	–	–	–	–	–	–	–
CN(Cc1ccncc1)C(=S)SCc1ccc(C(=O)Nc2ccccc2N)cc1	83.2%	38.1%	72.7%	29.5%	86.1%	31.4%	–	–	–	–	–	–	–
Nc1ccccc1NC(=O)c1ccc(CSC(=S)N2CCN(C(c3ccccc3)c3ccccc3)CC2)cc1	9.9%	9.8%	13.8%	8%	8.4%	8.7%	–	–	–	–	–	–	–
Nc1ccccc1NC(=O)c1ccc(CSC(=S)N(Cc2ccccc2)Cc2ccccc2)cc1	30.7%	11%	18.9%	1%	32.5%	10.9%	–	–	–	–	–	–	–
Nc1ccccc1NC(=O)c1ccc(CSC(=S)N2CCN(c3ccc(F)cc3)CC2)cc1	48.7%	18.8%	64.5%	60.8%	76.3%	20.9%	980 nM	9400 nM	–	2730 nM	17200 nM	> 32000 nM	–
Nc1ccccc1NC(=O)c1ccc(CSC(=S)N2CCN(c3ccccc3F)CC2)cc1	86.4%	33.7%	59.2%	17.5%	79.5%	18.7%	–	–	–	–	–	–	–
CC1CCCCN1C(=S)SCc1ccc(C(=O)Nc2ccccc2N)cc1 (stereo not given)	86.9%	64.4%	76.3%	45.5%	85.2%	42.5%	1300 nM	2610 nM	2300 nM	1320 nM	1610 nM	2950 nM	Dose-dependent effect
CN(Cc1cccnc1)C(=S)SCc1ccc(C(=O)Nc2ccccc2N)cc1	85.5%	45.9%	68.7%	16.4%	83.8%	39.4%	–	–	–	–	–	–	–
